Measurements reported in patent US10065990B2, “Cyclic peptide compound, and preparation method, pharmaceutical composition and use thereof” (HANGZHOU GUANYU BIO-MEDICAL CO., LTD, priority 2013, dated 2018).
Read-outs that look alike come from different tables or passages of the source.

Assays:
[1] = test system: MCF-7 (human breast cancer cells); experiment: MTT cancer cell growth inhibition; type: cell-based; conditions: 72 hours incubation, read-out: GI50 MCF
Excerpt: (§1) MTT assay principle is yellow MTT can penetrate membrane into the cell, succinic dehydrogenase of the mitochondria in living cells can make exogenous MTT reduction of insoluble in water of blue-violet acicular formazan for crystallization and deposition in the cell, crystallization can be dissolved dimethyl sulfoxide (DMSO) solution, detected its absorbance at 490 nm/570 nm wavelength by enzyme-linked immunosorbent assay, which can reflect the number of cells.
(§2) Using DMEM+10% FBS culture medium or using 1640+10% FBS culture, respectively.
(§3) a) Cells were seeded in 96-well plates with the inoculation of 1500/well, 190 μl/hole, 37° C., 5% of CO2 incubator overnight;
(§4) b) The next day each well was added 10 μl of different drugs. The final concentration of drug was 10^−5˜10^−10M, three parallel holes; 37° C., 5% CO2 culture incubator for 72 hours incubation;
(§5) c) Per well was added 20 μl 5 mg/ml of MTT, 37° C., 5% CO2 culture incubator for 4 hours incubation;
(§6) d) The supernatant was discarded. Each well was added 100 μl of DMSO and oscillation;
(§7) e) 570 nm readings. Calculate cell viability. GI50 calculation based on the results.

[2] = test system: A549 (human lung cancer cells); experiment: MTT cancer cell growth inhibition; type: cell-based; conditions: MTT, 72 hours incubation, read-out: GI50 A54
Excerpt: as §1, §2, §3, §4, §5, §6, §7

[3] = test system: BGC-823 (human gastric cancer cells); experiment: MTT cancer cell growth inhibition; type: cell-based; conditions: MTT, 72 hours incubation, read-out: GI50 BG
Excerpt: as §1, §2, §3, §4, §5, §6, §7

[4] = test system: lncap (prostate cancer cells); experiment: MTT cancer cell growth inhibition; type: cell-based; conditions: MTT, 72 hours incubation, read-out: GI50 lnca
Excerpt: as §1, §2, §3, §4, §5, §6, §7

[5] = test system: MOLT-4 (human acute lymphoblastic leukemia cells); experiment: MTT cancer cell growth inhibition; type: cell-based; conditions: MTT, 72 hours incubation, read-out: GI50 Mol
Excerpt: as §1, §2, §3, §4, §5, §6, §7

[6] = test system: PANC-1 (Pac-1, human pancreatic cancer cells); experiment: MTT cancer cell growth inhibition; type: cell-based; conditions: MTT, 72 hours incubation, read-out: GI50 PAN
Excerpt: as §1, §2, §3, §4, §5, §6, §7

[7] = test system: HT1080 (human fibrosarcoma cells); experiment: MTT cancer cell growth inhibition; type: cell-based; conditions: MTT, 72 hours incubation, read-out: GI50 HT1
Excerpt: as §1, §2, §3, §4, §5, §6, §7

[8] = test system: U937 (human leukemia cells); experiment: MTT cancer cell growth inhibition; type: cell-based; conditions: MTT, 72 hours incubation, read-out: GI50 U93
Excerpt: as §1, §2, §3, §4, §5, §6, §7

[9] = test system: DU145 (human prostate cancer cells); experiment: MTT cancer cell growth inhibition; type: cell-based; conditions: MTT, 72 hours incubation, read-out: GI50 Du1
Excerpt: as §1, §2, §3, §4, §5, §6, §7

[10] = test system: Hela (human cervical cancer cells); experiment: MTT cancer cell growth inhibition; type: cell-based; conditions: MTT, 72 hours incubation, read-out: GI50 Hela
Excerpt: as §1, §2, §3, §4, §5, §6, §7

HDAC7 = target: T1, HDAC7 (Homo sapiens, UniProt Q8WUI4); experiment: HDAC biochemical activity measurement (fluorescent substrate deacetylation);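 further: fluorogenic deacetylation assay using acetyl-lysine substrate at 20 µM, enzyme and compound incubated 30 min at 37 °C, then developer added, fluorescence read at 360/460 nm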; conditions: HDAC7; 37° C. 30 minutes
T1 sequence (Q8WUI4 1-952): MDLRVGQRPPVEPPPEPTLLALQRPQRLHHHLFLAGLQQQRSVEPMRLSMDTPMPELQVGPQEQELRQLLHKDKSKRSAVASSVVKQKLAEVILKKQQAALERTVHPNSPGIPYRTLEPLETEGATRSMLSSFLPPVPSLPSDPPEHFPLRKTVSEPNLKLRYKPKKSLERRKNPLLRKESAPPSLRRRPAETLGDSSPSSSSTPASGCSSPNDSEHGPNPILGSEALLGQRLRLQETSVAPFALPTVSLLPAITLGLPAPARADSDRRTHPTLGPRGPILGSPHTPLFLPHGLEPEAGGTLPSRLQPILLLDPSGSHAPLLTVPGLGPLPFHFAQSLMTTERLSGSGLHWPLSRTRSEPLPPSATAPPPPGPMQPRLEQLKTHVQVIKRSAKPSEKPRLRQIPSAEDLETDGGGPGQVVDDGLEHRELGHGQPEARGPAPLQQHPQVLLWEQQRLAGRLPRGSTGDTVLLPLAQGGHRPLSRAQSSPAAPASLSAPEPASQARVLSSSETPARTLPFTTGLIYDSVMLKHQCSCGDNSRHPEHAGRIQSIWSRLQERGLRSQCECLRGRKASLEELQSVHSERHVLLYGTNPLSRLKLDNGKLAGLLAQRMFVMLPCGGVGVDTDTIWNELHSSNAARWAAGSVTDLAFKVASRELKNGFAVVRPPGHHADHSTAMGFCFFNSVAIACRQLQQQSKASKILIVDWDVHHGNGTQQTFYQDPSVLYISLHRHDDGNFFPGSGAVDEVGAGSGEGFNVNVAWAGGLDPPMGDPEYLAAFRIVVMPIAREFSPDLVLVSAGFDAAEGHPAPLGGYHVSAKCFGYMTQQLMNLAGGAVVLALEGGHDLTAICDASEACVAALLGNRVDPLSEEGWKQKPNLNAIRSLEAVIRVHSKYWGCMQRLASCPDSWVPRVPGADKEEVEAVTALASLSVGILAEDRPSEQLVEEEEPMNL

[11] = test system: MDA-MB-231 (breast cancer cells); experiment: MTT cancer cell growth inhibition; type: cell-based
Excerpt: as §1, §2, §3, §4, §5, §6, §7

[12] = test system: Huh-7 (human hepatoma cells); experiment: MTT cancer cell growth inhibition; type: cell-based; conditions: MTT, 72 hours incubation, Huh-7 cells, read-out: GI50 Huh-7
Excerpt: as §1, §2, §3, §4, §5, §6, §7

[13] = test system: K562 (human leukemia cells); experiment: MTT cancer cell growth inhibition; type: cell-based; conditions: MTT, 72 hours incubation, K562 cells, read-out: GI50 K562
Excerpt: as §1, §2, §3, §4, §5, §6, §7

[14] = test system: KBM-5 (human chronic myelogenous leukemia); experiment: MTT cancer cell growth inhibition; type: cell-based; conditions: MTT, 72 hours incubation, KBM-5 cells, read-out: GI50 KBM-5
Excerpt: as §1, §2, §3, §4, §5, §6, §7

[15] = test system: HCC827 (human non-small cell lung cancer cells); experiment: MTT cancer cell growth inhibition; type: cell-based; conditions: MTT, 72 hours incubation, HCC827 cells, read-out: GI50 HCC827
Excerpt: as §1, §2, §3, §4, §5, §6, §7

[16] = test system: KBM5-T315I (human chronic myelogenous leukemia); experiment: MTT cancer cell growth inhibition; type: cell-based; conditions: MTT, 72 hours incubation, KBM5-T315I cells, read-out: GI50 KBM5-T315I
Excerpt: as §1, §2, §3, §4, §5, §6, §7

[17] = test system: SGC-7901 (human gastric cancer cells); experiment: MTT cancer cell growth inhibition; type: cell-based; conditions: MTT, 72 hours incubation, SGC-7901 cells, read-out: GI50 SGC-7901
Excerpt: as §1, §2, §3, §4, §5, §6, §7

[18] = test system: Bel-7402 (human hepatoma cells); experiment: MTT cancer cell growth inhibition; type: cell-based; conditions: MTT, 72 hours incubation, Bel-7402 cells, read-out: GI50 Bel-7402
Excerpt: as §1, §2, §3, §4, §5, §6, §7

[19] = test system: H1975 (non-small cell lung adenocarcinoma); experiment: MTT cancer cell growth inhibition; type: cell-based; conditions: MTT, 72 hours incubation, H1975 cells, read-out: GI50 H1975
Excerpt: as §1, §2, §3, §4, §5, §6, §7

[20] = test system: N-87 (human gastric cancer cells); experiment: MTT cancer cell growth inhibition; type: cell-based; conditions: MTT, 72 hours incubation, N-87 cells, read-out: GI50 N-87
Excerpt: as §1, §2, §3, §4, §5, §6, §7

[21] = Homo sapiens, MDA-MB-231, 72 h, read-out: GI50 MDA-MB-231, MTT, 72 hours incubation, MDA-MB-231 cells

| Compound | GI50 [1] [nM] | GI50 [2] [nM] | GI50 [3] [nM] | GI50 [4] [nM] | GI50 [5] [nM] | GI50 [6] [nM] | GI50 [7] [nM] | GI50 [8] [nM] | GI50 [9] [nM] | GI50 [10] [nM] | IC50 HDAC7 (HDAC7) | GI50 [11, 21] [nM] | GI50 ([12]; Homo sapiens, Huh-7, 72 h) [nM] | GI50 ([13]; Homo sapiens, K562, 72 h) [nM] | GI50 ([14]; Homo sapiens, KBM5, 72 h) [nM] | GI50 ([15]; Homo sapiens, HCC827, 72 h) [nM] | GI50 ([16]; Homo sapiens, 72 h) [nM] | GI50 ([17]; Homo sapiens, SGC-7901, 72 h) [nM] | GI50 ([18]; Homo sapiens, Bel-7402, 72 h) [nM] | GI50 ([19]; Homo sapiens, NCI-H1975, 72 h) [nM] | other results |
| --- | --- | --- | --- | --- | --- | --- | --- | --- | --- | --- | --- | --- | --- | --- | --- | --- | --- | --- | --- | --- | --- |
| C/C=C1\NC(=O)c2ccc(F)c(n2)CNC(=O)C[C@@H](/C=C/CCSC(C)=O)OC(=O)[C@H](C(C)C)NC1=O (single isomer, unassigned) [Example 50] | 60 | 30 | 60 | 20 | 20 | 80 | 80 | 30 | 40 | 70 | no activity |  |  |  |  |  |  |  |  |  |  |
| C/C=C1\NC(=O)c2nc(ccc2F)CNC(=O)C[C@@H](/C=C/CCSC(C)=O)OC(=O)[C@H](C(C)C)NC1=O [Compound 93] | 30 | 60 | 20 | 30 | 30 | 30 | 30 | 20 | 30 | 50 | no activity | 38 | 38 | 37 | 53 | 34 | 34 | 68 | 34 | 27 |  |
| C/C=C1\NC(=O)c2ccc(F)c(n2)CNC(=O)C[C@@H](/C=C/CCSC(C)=O)OC(=O)[C@H](C(C)C)NC1=O [Compound 95] |  |  | 20 |  |  |  |  |  |  |  | no activity | 22 | 22 | 26 | 76 | 83 | 38 | 42 | 83 | 35 | GI50 ([1]; Homo sapiens, MCF7, 72 h): 30 nM; GI50 ([2]; Homo sapiens, A549, 72 h): 40 nM; GI50 ([4]; Homo sapiens, LNCaP, 72 h): 20 nM; GI50 ([5]; Homo sapiens, MOLT-4, 72 h): 20 nM; GI50 ([6]; Homo sapiens, PANC-1, 72 h): 80 nM; GI50 ([7]; Homo sapiens, HT-1080, 72 h): 80 nM; GI50 ([8]; Homo sapiens, U-937, 72 h): 30 nM; GI50 ([9]; Homo sapiens, DU-145, 72 h): 20 nM; GI50 ([10]; Homo sapiens, HeLa, 72 h): 70 nM |
| C/C=C1\NC(=O)c2cc(F)cc(n2)CNC(=O)C[C@@H](/C=C/CCS)OC(=O)[C@H](CC)NC1=O [Compound 110] |  |  |  |  |  |  |  |  |  |  | no activity | 13 | 48 | 17 | 41 | 62 | 29 | 57 | 62 | 59 | GI50 ([1]; Homo sapiens, MCF7, 72 h): 30 nM; GI50 ([2]; Homo sapiens, A549, 72 h): 60 nM; GI50 ([3]; Homo sapiens, BGC-823, 72 h): 30 nM; GI50 ([4]; Homo sapiens, LNCaP, 72 h): 30 nM; GI50 ([5]; Homo sapiens, MOLT-4, 72 h): 30 nM; GI50 ([20]; Homo sapiens, 72 h): 35 nM; GI50 ([7]; Homo sapiens, HT-1080, 72 h): 70 nM; GI50 ([8]; Homo sapiens, U-937, 72 h): 60 nM; GI50 ([9]; Homo sapiens, DU-145, 72 h): 50 nM; GI50 ([10]; Homo sapiens, HeLa, 72 h): 60 nM |
| C/C=C1\NC(=O)c2nc(ccc2F)CNC(=O)C[C@@H](/C=C/CCSC(C)=O)OC(=O)[C@H](CC)NC1=O [Example 57] |  |  |  |  |  |  |  |  |  |  |  |  |  |  |  |  |  |  |  |  | GI50 ([11]; read-out: GI50 MDA-MB-231, MTT, 72 hours incubation, MDA-MB-231 cells): 28 nM; GI50 [12]: 28 nM; GI50 [13]: 35 nM; GI50 [14]: 74 nM; GI50 [15]: 73 nM; GI50 [16]: 54 nM; GI50 [20]: 53 nM; GI50 [17]: 92 nM; GI50 [18]: 73 nM; GI50 [19]: 55 nM |
